Data taken from ChEMBL document CHEMBL1150549, “Synthesis and antifungal activity of new azole derivatives containing an oxathiane ring” (1996).
In brackets after ≈: the same amount, converted by molar mass.

Tests used:
Assay type in all cases: functional
Aspergillus fumigatus = assay: In vitro antifungal activity against Aspergillus fumigatus MTU6001
Candida albicans = assay: In vitro antifungal activity against Candida albicans KB-8
Mus musculus [1] = assay: In vivo antifungal activity against Aspergillus fumigatus in mice at a dose of 50 mg/kg upon oral administration
Mus musculus [2] = assay: In vivo antifungal activity against Candida albicans in mice at a dose of 10 mg/kg upon oral administration
Mus musculus [3] = assay: In vivo antifungal activity against Aspergillus fumigatus in mice at a dose of 100 mg/kg upon oral administration

Compound	MIC (Aspergillus fumigatus) [µg/mL]	MIC (Candida albicans) [µg/mL]	Mean survival days (Mus musculus [1]) [days]	Mean survival days (Mus musculus [2]) [days]	Mean survival days (Mus musculus [3]) [days]
CC1(C)C(Cn2cncn2)(c2ccc(F)cc2F)OCCS1(=O)=O (single isomer, unassigned)	100 (≈ 280 µM)	3.13 (≈ 8.76 µM)	10	9.4	–
C[C@@H]1SCCOC1(Cn1cncn1)c1ccc(F)cc1F (single isomer, unassigned)	25 (≈ 80.3 µM)	0.1 (≈ 0.321 µM)	1.9	2	–
CC1COC(Cn2cncn2)(c2ccc(F)cc2F)C(C)(C)S1(=O)=O (single isomer, unassigned)	12.5 (≈ 33.7 µM)	0.39 (≈ 1.05 µM)	9.4	10	–
OC(Cn1cncn1)(Cn1cncn1)c1ccc(F)cc1F [FLUCONAZOLE]	400 (≈ 1310 µM)	0.78 (≈ 2.55 µM)	–	10	2.8
CC1(C)SCCOC1(Cn1cncn1)c1ccc(F)cc1F (single isomer, unassigned)	3.13 (≈ 9.62 µM)	0.1 (≈ 0.307 µM)	9.8	8.6	–
C[C@H]([C@](O)(Cn1cncn1)c1ccc(F)cc1F)S(C)(=O)=O [GENACONAZOLE]	25 (≈ 75.5 µM)	0.39 (≈ 1.18 µM)	10	10	–
C[C@@H]1C(Cn2cncn2)(c2ccc(F)cc2F)OCCS1(=O)=O (single isomer, unassigned)	> 100	6.25 (≈ 18.2 µM)	1.1	6.9	–
C[C@H]1SCCOC1(Cn1cncn1)c1ccc(F)cc1F (single isomer, unassigned)	50 (≈ 161 µM)	0.2 (≈ 0.642 µM)	1.5	4.9	–
C[C@H]1C(Cn2cncn2)(c2ccc(F)cc2F)OCCS1(=O)=O (single isomer, unassigned)	> 100	3.13 (≈ 9.12 µM)	1.8	1.2	–
